Reference: patent US20230337677A1, “ARYL AND PYRIDYL AMIDE PESTICIDES AND COMPOSITIONS THEREOF” (University of Florida Research Foundation, Incorporated, priority 2019, published 2023)
“Also recorded” adds a separate entry of the source. Read-outs that look alike come from different tables or passages of the source.

How the values were obtained:
[1] = system: Aedes aegypti mosquitoes, insecticide-susceptible Orlando strain; details: for 24h % mortality: Screened at μg/cm^2
[2] = system: Aedes aegypti mosquitoes, insecticide-susceptible Orlando strain; type: in vivo; details: for 1 h % Repellency, 100 μg/cm^2: screened at 100 μg/cm^2, strain not given; for knockdown in 1 hr repellency test (XXkd = number of insects incapacitated out of 16 females): 100 μg/cm^2; for 1h % repellency: Screened at μg/cm^2; for 1 h Repellency EC50, μg/cm^2: (OR)
Experimental: The tubes as shown were held horizontally on the bench.
For assessing behavioral repellency (FIG. 1), Aedes aegypti mosquitoes were used from the insecticide-susceptible Orlando strain and the pyrethroid-resistant Puerto Rico strain. Sixteen female mosquitoes were transferred to a glass tube (12.5 cm long, 2.5 cm outer diameter) with the ends covered with netting. Each compound was dissolved in 1 mL of acetone and serial dilutions ranging from 30-0.01 μg/ml were made. Circular filter papers (5 cm^2) were saturated with 50 μL of each concentration and allowed 10 min for solvent evaporation. The filter papers were then placed in clear conical polypropylene caps and fixed to the end of the glass tubes. The netting prevented mosquito contact with the filter paper. The tubes were then aligned with a mark denoting the midline and the proportion of mosquitoes on the chemically treated side was scored for up to 60 min. At the end of the test, the tube was placed in a cage and the ability of the mosquitoes to fly out of the tube was assessed for 30 min. […] This post-test evaluated whether any non-responding mosquitoes (not repelled) resulted from intoxication or disorientation from the test chemical. For assessment of lethality, insects were held for 24 hr under constant exposure in glass tubes having treated filter papers.
Compounds were first screened at 100 μg/cm^2 for repellency and 24 h mortality.

[3] = system: Anopheles gambiae G3 sensitive strain; experiment: Topical toxicity (24 hour mortality), An. gambiae G3; type: in vivo
Experimental: (§1) The Aedes aegypti strains Orlando (sensitive) as well as the Puerto Rico (PR, resistant to permethrin) were used. The Anopheles gambiae (G3 sensitive strain, as well as Akron kdr (Akdr) strain, resistant to pyrethroids were also assessed. The larvae were provided by the USDA, Gainesville Fl, and raised in a pan with tap water maintained at 28° C. Larvae were fed a ground liver and yeast mixture, and pupae were placed in emergence cages. Adults were held at 28° C. and provided with cotton balls soaked in 10% sugar water for rearing and for all bioassays.
(§2) Female adults from 3 to 6 days were used for the experiments. The drug was dissolved in ethanol and then applied with a micro-applicator on the thorax, between the legs: 200 nL of drug per female mosquito, with different concentrations of the drug; 10 mosquitos were treated together per concentration per replicate, and put together in a small container with free access to sweet water. Mortality, i.e. no visible movement, was assessed 24 hours after treatment. Every compound was assessed on at least 3 different cohorts of mosquitoes, and the LD50 values and slopes were determined with Probit analysis, corrected with Abbott's formula.

[4] = system: Aedes aegypti strain Orlando (sensitive); experiment: Topical toxicity (24 hour mortality), Ae. aegypti Orlando; type: in vivo
Experimental: as §1, §2

[5] = system: Anopheles gambiae Akron kdr (Akdr) strain, resistant to pyrethroids; experiment: Topical toxicity (24 hour mortality), An. gambiae Akdr; type: in vivo; details: for An. gambiae RR (resistance ratio): 24 h LD50 resistant strain (AKDR)/24 h LD50 susceptible strain (G3)
Experimental: as §1, §2

[6] = screened at 100 μg/cm^2, 24 h, strain not given
[7] = topical application, 24 h mortality, female adults, susceptible strain G3
[8] = topical application, 24 h mortality, female adults, susceptible Orlando strain
[9] = topical application, 24 h mortality, female adults, pyrethroid-resistant Akdr strain

Row | Structure (SMILES) | 24 h % Mortality, 100 μg/cm^2 [1, 6] [%] | 1 h % Repellency, 100 μg/cm^2 [2] [%] | An. gambiae G3 LD50 [3, 7] [ng/mg] | Ae. aegypti OR LD50 [4, 8] [ng/mg] | An. gambiae AKDR LD50 [5, 9] [ng/mg] | other results
1 | CC(C)(C)c1cccc(NC(=O)CCl)c1 [MTFI-5-7A] | 0 | 6 | – | – | – | –
2 | CCCC(=O)Nc1cc(F)c(F)c(F)c1 [GMR144] | 38 | 62 | – | – | – | –
3 | O=C(Nc1cc(C(F)(F)F)cc(C(F)(F)F)c1)C(F)(F)F [MTFI-3-1G] | – | – | – | – | – | 24 h % Mortality, 100 μg/cm^2 ([1]; in vivo): 100%; 24 h LC50, μg/cm^2 ([1]; in vivo): 16 μg/cm^2; knockdown in 1 hr repellency test (XXkd = number of insects incapacitated out of 16 females) [2]: 3
4 | CC(C)(C)c1cccc(NC(=O)CCl)c1 [compound 1] | – | – | – | – | – | 24h % mortality ([1]; Table 3B): 0%; 1h % repellency ([2]; Table 3B): 6%
5 | O=C(CCC1CCCCC1)Nc1cc(C(F)(F)F)cc(C(F)(F)F)c1 [MTFI-3-1D] | 7 | 6 | – | – | – | –
6 | O=C(CC1CC1)Nc1ccccc1C(F)(F)F [MTFI-5-5C] | 0 | 82 | – | – | – | 1 h Repellency EC50, μg/cm^2 [2]: 34 μg/cm^2
7 | COCc1c(F)c(F)c(COC(=O)[C@@H]2[C@@H](C=C(Cl)Cl)C2(C)C)c(F)c1F [GMR146] | – | – | – | – | – | 24 h % Mortality, 100 μg/cm^2 ([1]; in vivo): 100%; 24 h LC50, μg/cm^2 ([1]; in vivo): 1 μg/cm^2; knockdown in 1 hr repellency test (XXkd = number of insects incapacitated out of 16 females) [2]: 15
8 | CN(C(=O)C(F)(F)C(F)(F)OC(F)(F)F)c1cc(Cl)nc(Cl)c1 [GMR106] | – | – | >1000 | 846 | – | 24 h % Mortality, 100 μg/cm^2 ([1]; in vivo): 100%; knockdown in 1 hr repellency test (XXkd = number of insects incapacitated out of 16 females) [2]: 2
9 | O/N=C(\Nc1cc(Cl)nc(C(F)(F)F)c1)C(F)(F)C(F)(F)C(F)(F)F [GMR105] | 21 | 24 | – | – | – | –
10 | O=C(Nc1ccc(F)cc1)C(F)(F)C(F)(F)F [GMR189] | 94 | 42 | – | – | – | 24 h LC50, μg/cm^2 ([1]; 24 h, LC50 (OR)): 35.3 μg/cm^2; 1 h Repellency EC50, μg/cm^2 [2]: 4.5 μg/cm^2
11 | CCC(=O)Nc1c(Cl)cncc1Cl [GMR131] | 6 | −4 | – | – | – | –
12 | CC(C)(F)C(=O)Nc1ccccc1C(F)(F)F [MTFI-5-5A] | 3 | 82 | – | – | – | vapor repellency / mortality, statement in words (Example 8) ([2]; structure-activity analysis of Table 2): reduced repellency; also recorded: little to no activity
13 | O=C(Nc1cc(F)c(F)c(F)c1F)C(F)(F)F [MTFI-5-4B] | 0 | 82 | – | – | – | –
14 | O=C(Nc1cc(F)c(F)c(F)c1)C(F)(F)C(F)(F)F [GMR135] | 100 | 74 | – | 1792 | – | 24 h LC50, μg/cm^2 ([1]; 24 h, LC50 (OR)): 21.6 μg/cm^2; 1 h Repellency EC50, μg/cm^2 [2]: 22.1 μg/cm^2
15 | CCC(=O)Nc1cc(F)c(F)c(F)c1 [GMR143] | 53 | 88 | – | – | – | 24 h LC50, μg/cm^2 ([1]; 24 h, LC50 (OR)): 95 μg/cm^2; 1 h Repellency EC50, μg/cm^2 [2]: 23 μg/cm^2
16 | O=C(Nc1ccccc1OC(F)(F)F)C(F)(F)C(F)(F)C(F)(F)F [GMR129] | – | 34 | >1000 | >6000 | ~1000 | –
17 | O=C(CCl)Nc1cccc(C(F)(F)F)c1 [MTFI-2-2A] | 3 | 50 | – | – | – | –
18 | C=CCCCC(=O)Nc1cc(C(F)(F)F)cc(C(F)(F)F)c1 [MTFI-3-1C] | 0 | 38 | – | – | – | –
19 | O=C(Nc1cc(Cl)nc(C(F)(F)F)c1)C(F)F [GMR034] | – | – | 20.8 | 1454 | 23.8 | An. gambiae RR (resistance ratio) [5]: 1.1
20 | CC(C)CC(=O)Nc1cc(F)c(F)c(F)c1 [GMR141] | 19 | 16 | – | – | – | –
21 | O=C(CCC1CCCCC1)Nc1ccccc1C(F)(F)F [MTFI-3-2F] | 25 | 18 | – | – | – | –

Row | Structure (SMILES) | 24 h % Mortality, 100 μg/cm^2 [1, 6] [%] | 1 h % Repellency, 100 μg/cm^2 [2] [%] | An. gambiae G3 LD50 [3, 7] [ng/mg] | Ae. aegypti OR LD50 [4, 8] [ng/mg] | An. gambiae AKDR LD50 [5, 9] [ng/mg] | other results
22 | O=C(CCCC(F)(F)F)Nc1cc(Cl)nc(Cl)c1 [GMR052] | – | – | >100 | 2743 | >100 | –
23 | Cc1cc(NC(=O)C(F)(F)F)cc(C)n1 [GMR048] | – | – | >100 | >1500 | >100 | –
24 | O=C(Nc1cc(Cl)nc(C(F)(F)F)c1)C(F)(F)F [GMR035] | – | – | 30.5 | 106 | 52.1 | An. gambiae RR (resistance ratio) [5]: 1.7
25 | Cc1cc(NC(=O)C(F)(F)C(F)(F)C(F)(F)F)cc(C)n1 [GMR050] | – | – | >100 | >3000 | >100 | –
26 | O=C(Nc1cc(Br)nc(Br)c1)C(F)(F)C(F)(F)C(F)(F)F [GMR042] | – | – | 11.4 | 24 | 4.7 | An. gambiae RR (resistance ratio) [5]: 0.4
27 | O=C(Nc1cc(F)nc(F)c1)C(F)F [GMR043] | – | – | >100 | 2480 | >100 | –
28 | CCOC(=O)Nc1ccccc1C(F)(F)F [GMR020] | 9 | 16 | – | – | – | –
29 | O=C(Nc1cc(Cl)nc(C(F)(F)F)c1)C(F)(F)C(F)(F)C(F)(F)F [GMR037, N-(2-chloro-6-(trifluoromethyl)pyridin-4-yl)-2,2,3,3,4,4,4-heptafluorobutanamide] | – | – | 6.5 | 17 | 5.3 | An. gambiae RR (resistance ratio) [5]: 0.8
30 | O=C(Nc1cc(F)nc(F)c1)C(F)(F)F [GMR044] | – | – | >100 | 1996 | >100 | –
31 | O=C(Nc1cc(F)c(F)c(F)c1)C(F)(F)C(F)(F)OC(F)(F)F [compound 51] | – | – | – | – | – | 24 h LC50, μg/cm^2 ([1]; Table 3A): 14.94 μg/cm^2; 24h % mortality ([1]; Table 3A): 100%; 1h EC50 (μg/cm^2) ([2]; Table 3A): 3.09 μg/cm^2; 1h % repellency ([2]; Table 3A): 100%
32 | O=C(Nc1cc(Cl)nc(Cl)c1)C(F)(F)C(F)(F)OC(F)(F)F [GMR084] | – | – | 6.04 | 17.8 | 11.00 | An. gambiae RR (resistance ratio) [5]: 1.8
33 | CCCCCCCCCC(=O)Nc1ccccc1OC(F)(F)F [GMR184] | 2 | −8 | – | – | – | –
34 | O=C(Nc1cc(Cl)nc(Cl)c1)C(F)(F)C(F)(F)C(F)(F)C(F)(F)C(F)(F)F [GMR051] | – | – | 5.2 | 23.4 | 3.7 | An. gambiae RR (resistance ratio) [5]: 0.7
35 | CCCCC(=O)Nc1cccc(OC(F)(F)F)c1 [MTFI-5-9A] | 0 | 50 | – | – | – | –
36 | O=C(Nc1cc(F)cc(F)c1)C(F)(F)C(F)(F)F [GMR188] | 81 | – | – | – | – | 24 h LC50, μg/cm^2 ([1]; 24 h, LC50 (OR)): 4.9 μg/cm^2
37 | O=C(Nc1cc(Cl)nc(C(F)(F)F)c1)C(F)(F)C(F)(F)C(F)(F)F [compound 56] | – | – | – | – | – | An. gambiae G3 LD50 ([3]; Table 5, topical, 24 h): 6.50 ng/mg; An. gambiae AKDR LD50 ([5]; Table 5, topical, 24 h): 5.30 ng/mg; Ae. aegypti OR LD50 ([4]; Table 5, topical, 24 h): 17.30 ng/mg
38 | O=C(Nc1cc(Br)nc(Br)c1)C(F)F [GMR039] | – | – | 20.8 | 2253 | 23.8 | An. gambiae RR (resistance ratio) [5]: 1.1
39 | C=CC(=O)Nc1ccccc1N [GMR022] | 16 | −8 | – | – | – | –
40 | N#CC(F)(F)C(=O)Nc1cc(Cl)nc(Cl)c1 [GMR101] | – | – | >100 | 1841 | >100 | –
41 | CC(C)(C)OC(=O)N(C(=O)C(F)(F)C(F)(F)C(F)(F)F)c1cc(Cl)nc(Cl)c1 [GMR087] | – | – | 23.00 | 54.6 | 20.50 | An. gambiae RR (resistance ratio) [5]: 0.9
42 | O=C(Nc1cc(F)nc(F)c1)C(F)(F)C(F)(F)C(F)(F)C(F)(F)C(F)(F)F [GMR072] | – | – | 11.00 | 114 | 17 | An. gambiae RR (resistance ratio) [5]: 1.5
